Legend:
[1] = test system: osteoarthritis of the knee; assay: Second Phase 2 study: WOMAC overall score; assay type: in vivo, human; conditions: Week 12
Excerpt: This is a Phase 2, multicenter, randomized, double blind (within dose), Ibuprofen-placebo controlled, parallel group, dose range finding study to evaluate the efficacy, safety, and PK of 2-(diethylamino)ethyl 2-(4-isobutylphenyl)propionate spray in adult subjects with clinically symptomatic OA of the knee. For subjects with bilateral knee pain, both knees will be treated, but the most symptomatic knee (ie, the most painful knee as measured by the Western Ontario and McMaster University Osteoarthritis Index [WOMAC® 3.1] pain subscale score at Screening) will be designated as the target knee for efficacy analyses. For subjects with unilateral knee pain, only the symptomatic (target) knee will be treated.
The VAS version of the WOMAC will be used for the Primary and Secondary Efficacy Endpoints. Efficacy endpoints will be assessed at Screening and Baseline (Day 1) and at the Week 2, Week 4, Week 8, and Week 12/EOS visits.
4.9.2. Secondary Efficacy Endpoints: • 1. Change from Baseline in the WOMAC (VAS) pain subscale score for the target knee at 2, 8, and 12 weeks of treatment; • 2. Change from Baseline in the WOMAC (VAS) stiffness subscale scores for the target knee and WOMAC (VAS) functional ability subscale scores at 2, 4, 8, and 12 weeks of treatment; • 3. Change from Baseline in the overall WOMAC (VAS) score at 2, 4, 8, and 12 weeks of treatment; • 4. Subject's global assessment of disease status of the target knee at 2, 4, 8, and 12 weeks of treatment; • 5. Subject's global assessment of response to therapy of the target knee at 2, 4, 8, and 12 weeks of treatment; • 6. Amount of rescue medication (acetaminophen) consumed per day for target knee pain.
The Secondary Efficacy Endpoints, change from Baseline in the WOMAC subscale scores for pain, stiffness, and functional ability, and overall WOMAC score at 2, 4, 8, and 12 weeks of treatment, will be analyzed using the same methods as for the Primary Efficacy Endpoint.

[2] = test system: osteoarthritis of the knee; assay: Second Phase 2 study: Investigator's global assessment of disease status (IGADS); assay type: in vivo, human; conditions: Week 12; for IGADS: Good and Very good / IGADS: Poor and Very Poor / IGADS: fair: first 130 subjects; for IGADS, Good and Very good / IGADS, Poor and Very Poor / IGADS, fair: all subjects
[3] = 4.375 mg/knee BID (n = 23), first 130 subjects
[4] = 8.75 mg/knee BID (n = 24), first 130 subjects
[5] = 17.5 mg/knee BID (n = 19), first 130 subjects
[6] = all subjects, 4.375 mg/knee BID, n = 49
[7] = all subjects, 8.75 mg/knee BID, n = 54
[8] = all subjects, 17.5 mg/knee BID, n = 52

CCN(CC)CCOC(=O)C(C)c1ccc(CC(C)C)cc1 (stereo not shown) [2-(diethylamino)ethyl 2-(4-isobutylphenyl)propionate]
WOMAC Overall Scores, % of improvement from baseline [1, 3]: −43.2%
WOMAC Overall Scores, % of improvement from placebo [1, 3]: −13.0%
WOMAC Overall Scores, Changes from Baseline (LS Mean) [1, 3]: −25.6 mm
WOMAC Overall Scores, Different from oral ibuprofen (LS Mean) [1, 3]: −4.1 mm
WOMAC Overall Scores, Different from placebo (LS Mean) [1, 3]: −7.1 mm
WOMAC Overall Scores, Week 12 (LS Mean) [1, 3]: 33.8 mm
WOMAC Overall Scores, % of improvement from Oral Ibuprofen [1, 4]: −11.8%
WOMAC Overall Scores, % of improvement from baseline [1, 4]: −45.1%
WOMAC Overall Scores, % of improvement from placebo [1, 4]: −14.9%
WOMAC Overall Scores, Changes from Baseline (LS Mean) [1, 4]: −27.4 mm
WOMAC Overall Scores, Different from oral ibuprofen (LS Mean) [1, 4]: −5.9 mm
WOMAC Overall Scores, Different from placebo (LS Mean) [1, 4]: −9.0 mm
WOMAC Overall Scores, Week 12 (LS Mean) [1, 4]: 33.3 mm
WOMAC Overall Scores, % of improvement from Oral Ibuprofen [1, 5]: −24.6%
WOMAC Overall Scores, % of improvement from baseline [1, 5]: −57.7%
WOMAC Overall Scores, % of improvement from placebo [1, 5]: −27.5%
WOMAC Overall Scores, Changes from Baseline (LS Mean) [1, 5]: −36.6 mm
WOMAC Overall Scores, Different from oral ibuprofen (LS Mean) [1, 5]: −15.2 mm
WOMAC Overall Scores, Different from placebo (LS Mean) [1, 5]: −18.2 mm
WOMAC Overall Scores, Week 12 (LS Mean) [1, 5]: 26.8 mm
WOMAC Overall Scores, % of improvement from Oral Ibuprofen [1, 6]: −1.5%
WOMAC Overall Scores, % of improvement from baseline [1, 6]: −42.8%
WOMAC Overall Scores, % of improvement from placebo [1, 6]: −6.6%
WOMAC Overall Scores, Changes from Baseline (LS Mean) [1, 6]: −25.4 mm
WOMAC Overall Scores, Week 12 (LS Mean) [1, 6]: 34.0 mm
WOMAC Overall Scores, % of improvement from Oral Ibuprofen [1, 7]: −4.6%
WOMAC Overall Scores, % of improvement from baseline [1, 7]: −45.9%
WOMAC Overall Scores, % of improvement from placebo [1, 7]: −9.7%
WOMAC Overall Scores, Changes from Baseline (LS Mean) [1, 7]: −27.7 mm
WOMAC Overall Scores, Different from oral ibuprofen (LS Mean) [1, 7]: −2.8 mm
WOMAC Overall Scores, Different from placebo (LS Mean) [1, 7]: −6.4 mm
WOMAC Overall Scores, Week 12 (LS Mean) [1, 7]: 32.7 mm
WOMAC Overall Scores, % of improvement from Oral Ibuprofen [1, 8]: −10.6%
WOMAC Overall Scores, % of improvement from baseline [1, 8]: −51.9%
WOMAC Overall Scores, % of improvement from placebo [1, 8]: −15.7%
WOMAC Overall Scores, Changes from Baseline (LS Mean) [1, 8]: −30.9 mm
WOMAC Overall Scores, Different from oral ibuprofen (LS Mean) [1, 8]: −6.0 mm
WOMAC Overall Scores, Different from placebo (LS Mean) [1, 8]: −9.6 mm
WOMAC Overall Scores, Week 12 (LS Mean) [1, 8]: 28.6 mm
average scores in all six subscales ([1]; high dose group): below 30 mm
IGADS: Good and Very good ([2]; 4.375 mg/knee BID (n = 23)): 43.5%
IGADS: Poor and Very Poor ([2]; 4.375 mg/knee BID (n = 23)): 4.3%
IGADS: fair ([2]; 4.375 mg/knee BID (n = 23)): 53.2%
IGADS: Good and Very good ([2]; 8.75 mg/knee BID (n = 24)): 41.7%
IGADS: Poor and Very Poor ([2]; 8.75 mg/knee BID (n = 24)): 4.2%
IGADS: fair ([2]; 8.75 mg/knee BID (n = 24)): 54.2%
IGADS: Good and Very good ([2]; 17.5 mg/knee BID (n = 19)): 68.4%
IGADS: Poor and Very Poor ([2]; 17.5 mg/knee BID (n = 19)): 0%
IGADS: fair ([2]; 17.5 mg/knee BID (n = 19)): 31.6%
IGADS, Good and Very good ([2]; 4.375 mg/knee BID, n = 49): 40.8%
IGADS, Poor and Very Poor ([2]; 4.375 mg/knee BID, n = 49): 8.2%
IGADS, fair ([2]; 4.375 mg/knee BID, n = 49): 51.0%
IGADS, Good and Very good ([2]; 8.75 mg/knee BID, n = 54): 48.1%
IGADS, Poor and Very Poor ([2]; 8.75 mg/knee BID, n = 54): 7.4%
IGADS, fair ([2]; 8.75 mg/knee BID, n = 54): 44.4%
IGADS, Good and Very good ([2]; 17.5 mg/knee BID, n = 52): 63.5%
IGADS, Poor and Very Poor ([2]; 17.5 mg/knee BID, n = 52): 1.9%
IGADS, fair ([2]; 17.5 mg/knee BID, n = 52): 34.6%

Reference: patent publication US20240024273A1, “TOPICAL ADMINISTRATION OF 2-(DIETHYLAMINO)ETHYL 2-(4-ISOBUTYLPHENYL)PROPRIONATE FOR TREATMENT OF DISEASES” (TECHFIELDS PHARMA CO., LTD., priority 2020, published 2024)
